The values below come from PMC11763059, “GENI as an AMPK Activator Binds α and γ Subunits and Improves the Memory Dysfunction of Alzheimer’s Disease Mouse Models via Autophagy and Neuroprotection” (Antioxidants, 2025).

Each structure is given as a SMILES string.

Assay [1] has as its target T1, AMPK-s5 (γ subunit- D156A) (Rattus norvegicus, UniProt P54645+P80385, D156A).
T1 construct: His (N); made in house
Description: SPR analysis, AMPK mutant s5. Type of assay: binding. As to the method: (§1) Mammalian AMPK subunits (His-α1, β1, and γ1) were cloned into a pET-3d vector, and protein expression and purification were similar to the literature.
(§2) SPR analysis was performed with a Biacore T200 instrument (GE Healthcare). Firstly, the purred His-tagged AMPK containing α1β1γ1 protein was captured onto an activated carboxymethylated 5 (CM5) chip using amine coupling to levels ranging from 4000 RU to 6000 RU. Secondly, GENI was dissolved in PBS-P buffer solution (0.05% (v/v) Tween 20 and PBS), and the concentration of GENI was 64 μM. Thirdly, the solution of GENI was diluted to 32 μM, 16 μM, 8 μM, 4 μM, 2 μM, 1 μM and 0.5 μM with PBS-P buffer solution. The sample was filtered by pumping through a […] membrane. A gradient concentration of GENI was injected at a flow rate of 30 μL/min in a running buffer (0.05% (v/v) Tween 20 and PBS). The data were analyzed with Biacore evaluation software (T200 version 2.0) and fitted to the 1:1 Langmuir binding model, and the kinetic parameters were derived.
(§3) The non-covalent interaction between drugs and proteins is an important way to exert drug efficacy, and its mode of action and binding affinity usually determine the utilization and biological activity of drugs. AMPK is a heterotrimer complex consisting of an α subunit containing the kinase domain and two regulatory subunits (β- and γ-). […]

Assay [2] has as its target T2, AMPK-s6 (γ subunit- K309A) (Rattus norvegicus, UniProt P54645+P80385, K309A).
T2 construct: His (N); made in house
Description: SPR analysis, AMPK mutant s6. Type of assay: binding. The method, then: as §1, §2
The non-covalent interaction between drugs and proteins is an important way to exert drug efficacy, and its mode of action and binding affinity usually determine the utilization and biological activity of drugs. AMPK is a heterotrimer complex consisting of an α subunit containing the kinase domain and two regulatory subunits (β- and γ-). Different action sites have varied or even opposite pharmacological effects. The molecular mechanism of interaction between the protein and molecule should be investigated thoroughly. After co-incubation of GENI and AMPK, LC-MS/MS measurements were performed to predict the binding sites. As shown in Extended Data Figure S2, ASP148, ASP157 and ASP166 of the AMPK α subunits and LYS148, ASP156, LYS309, and ASP316 of the AMPK γ subunit were possible to the binding sites of GENI. […] Thus, all of these seven sites affected the binding of GENI and AMPK to varying degrees, and they were located in the C lobe kinase domain of the AMPK α subunit, and the CBS2 and CBS4 domain of the AMPK γ subunit, respectively.

The target in assay [3] is T3, AMPK-s4 (γ subunit- K148A) (Rattus norvegicus, UniProt P54645+P80385, K148A).
T3 construct: His (N); made in house
Description: SPR analysis, AMPK mutant s4. The format is binding. The method, then:
as §1, §2, §3
In general terms: Surface plasmon resonance follows binding to a sensor surface in real time, without labels.

Assay [4] concerns AMPK/mTOR/ULK1/LC3B signaling pathway. Description: Western blot of autophagy signaling pathway proteins. The format is cell-based. The note with it: after giving GENI; PC12 cells and mouse hippocampus and cerebral cortex (Extended Data Figure S3a–f). The method, then: Western blot analysis for p-AMPK α, AMPK α, p-mTOR, mTOR, p-ULK1, ULK1, and LC3-I/II was conducted according to the information described in the materials and methods section of Supplementary Information.
1.3. Western blot analysis.
For PC12 cell samples, we seeded 2 × 10^6 PC12 cells in each 60 mm dish containing 5 mL of DMEM and incubated the dish for 24 h. For the dose-dependent experiment of GENI, GENI (1, 3 and 10 μM) was added to the dishes and incubated for a period of time (2 hours for p-AMPK α, AMPK α, 48 hours for p-mTOR, mTOR and p-ULK1, ULK1; 8 hours for LC3-I/II). Cells were then collected, lysed using RAPI lysis buffer and centrifuged. The supernatants of each group were used as protein samples. […]
The supernatants of each group were used as protein samples. For animal samples, an appropriate amount of tissue, such as cerebral cortex and hippocampus (50–100 mg), of each group was weighed, and we added lysis buffer with 1:9 ratios. After grinding and centrifuging, the supernatants of each group were used as protein samples. The protein concentration was measured with a BCA assay kit (Beijing Cowin Biotech Company, Beijing, China). Sodium dodecyl sulphate polyacrylamide gel electrophoresis (SDS-PAGE) was used to separate proteins (15 μg), which were transferred to PVDF membranes. The membrane was incubated with primary and secondary antibodies (Supplementary Table S5 for details). Antigens were visualised using a high-sensitivity chemiluminescence detection kit (Beijing Cowin Biotech Company, Beijing, China). Bands were quantitatively measured using ImageJ software (National Institutes of Health, Bethesda, MD, USA).
On the technique in general: In western blotting, separated proteins are transferred to a membrane and probed.

Another assay deals with MAPK. Description: Drug affinity responsive target stability (DARTS), MAPK. Type of assay: binding. Conditions: 0.1–100 μM GENI, protein: pronase 5:1. As to the method: Cells were lysed by RIPA lysis buffer, and the protein concentration was measured. The lysate was divided into six groups. Before incubation with protease (protein: pronase = 50:1 w/w for PI3K and AMPK detection, 5:1 for MAPK detection, 100:1 for p53 detection) for 25 min in 25 °C, 0.1–100 μM GENI was added to lysates and incubated for 2 h at room temperature. The samples were mixed with loading buffer and then separated on 8% SDS-PAGE for immunoblotting analysis.

The mark [5] stands for this setting: SPR, association rate, read-out: Ka.

T2 sequence (P54645 13-559 limits assumed): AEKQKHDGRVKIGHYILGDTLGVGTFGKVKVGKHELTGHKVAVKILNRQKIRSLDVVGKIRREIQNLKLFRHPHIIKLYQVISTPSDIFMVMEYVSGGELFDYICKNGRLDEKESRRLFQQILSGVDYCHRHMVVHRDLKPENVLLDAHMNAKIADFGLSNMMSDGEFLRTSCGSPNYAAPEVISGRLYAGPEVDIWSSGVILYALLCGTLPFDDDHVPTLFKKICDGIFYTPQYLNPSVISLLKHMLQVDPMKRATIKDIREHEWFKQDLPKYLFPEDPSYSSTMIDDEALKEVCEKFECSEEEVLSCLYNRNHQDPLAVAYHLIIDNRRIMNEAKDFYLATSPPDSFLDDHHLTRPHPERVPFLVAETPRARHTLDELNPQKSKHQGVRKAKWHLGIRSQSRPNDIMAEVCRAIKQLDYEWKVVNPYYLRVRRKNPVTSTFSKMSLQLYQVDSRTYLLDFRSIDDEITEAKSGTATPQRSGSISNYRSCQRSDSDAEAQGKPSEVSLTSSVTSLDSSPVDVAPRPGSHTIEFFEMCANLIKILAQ
T2 sequence (P80386 whole entry partner): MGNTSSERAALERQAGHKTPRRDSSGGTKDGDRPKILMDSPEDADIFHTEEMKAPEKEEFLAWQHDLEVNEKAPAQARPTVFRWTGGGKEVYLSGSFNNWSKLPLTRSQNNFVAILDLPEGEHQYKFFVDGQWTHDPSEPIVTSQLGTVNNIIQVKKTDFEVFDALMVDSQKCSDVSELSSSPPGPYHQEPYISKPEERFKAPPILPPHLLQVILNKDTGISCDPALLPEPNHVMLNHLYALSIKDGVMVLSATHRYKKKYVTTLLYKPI
T2 sequence (P80385 whole entry K309A): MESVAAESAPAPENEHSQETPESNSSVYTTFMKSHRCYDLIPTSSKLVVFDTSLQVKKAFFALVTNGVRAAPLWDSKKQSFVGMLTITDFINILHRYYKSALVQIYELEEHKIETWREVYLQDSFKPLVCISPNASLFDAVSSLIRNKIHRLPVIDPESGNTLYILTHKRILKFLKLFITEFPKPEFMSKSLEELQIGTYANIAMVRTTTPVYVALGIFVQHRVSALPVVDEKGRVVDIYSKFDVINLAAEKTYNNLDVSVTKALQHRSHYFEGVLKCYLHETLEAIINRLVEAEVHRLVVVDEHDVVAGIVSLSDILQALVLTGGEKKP
T3 sequence (P54645 13-559 limits assumed): as the sequence (P54645 13-559 limits assumed) above
T3 sequence (P80386 whole entry partner): as the sequence (P80386 whole entry partner) above
T3 sequence (P80385 whole entry K148A): as the sequence (P80385 whole entry K309A) above, with K148A, A309K counted along it
T1 sequence (P54645 13-559 limits assumed): as the sequence (P54645 13-559 limits assumed) above
T1 sequence (P80386 whole entry partner): as the sequence (P80386 whole entry partner) above
T1 sequence (P80385 whole entry D156A): as the sequence (P80385 whole entry K309A) above, with D156A, A309K counted along it

On to `CC(C)CCOC(=O)C1=CO[C@@H](O[C@@H]2O[C@H](CO)[C@@H](O)[C@H](O)[C@H]2O)C2C(CO)=CCC12` (stereo partly drawn) [GENI, Geniposidic 4-isoamyl ester], for which the kon in assay [1] (setting [5]) is 2140 M⁻¹ s⁻¹. Also, the “dose-dependent relationship in SPR” value in assay [1] (point mutation of D156) is recorded as “dose-dependent relationship was lost”. The equilibrium dissociation constant (Kd) – broadly, the equilibrium constant for the complex coming apart – in assay [2] (SPR) turned out to be 6.21 µM. Besides, in assay [2] (setting [5]), the kon stood at 806 M⁻¹ s⁻¹. Moreover, the “response (RU) in SPR” value in assay [2] (point mutation of K309, versus wild-type) is given as “significantly reduced”. Also, the kon in assay [3] (setting [5]) was 4130 M⁻¹ s⁻¹. In addition, the “dose-dependent relationship in SPR” value in assay [3] (point mutation of K148) is reported as “dose-dependent relationship was lost”. Moreover, in assay [4], the “LC3B at protein level” value was “increase”, the “phosphorylate-AMPK at protein level” value was “increase”, the “phosphorylate-ULK1 at protein level” value was “increase” and the “phosphorylate-mTOR at protein level” value is reported as “reduction”. In addition, the “stability of MAPK against pronase (DARTS)” value in the assay on MAPK is “dramatically enhanced the stability”.
